From ChEMBL document CHEMBL1124661, “Synthesis of 8-substituted derivatives of the 2-deoxy analogue of 3-deoxy-beta-D-manno-2-octulopyranosonic acid (2-deoxy-beta-KDO) as inhibitors of 3-deoxy-D-manno-octulosonate cytidylyltransferase” (J Med Chem, 1989)

What was measured:
[1] = Activity against CMP-KDO synthetase-KDO-lipid A transferase (CKS-KLT) assay from Escherichia coli D21
[2] = Activity against CMP-KDO synthetase (CKS) from Escherichia coli D21,the compound gave rise to a strongly interfering absorption in the thiobarbituric acid assay
[3] = Activity against CMP-KDO synthetase (CKS) from Escherichia coli D21
[4] = Activity against CMP-KDO synthetase (CKS) from Escherichia coli D21, the compound gave rise to a strongly interfering absorption in the thiobarbituric acid assay

Structure (SMILES) | IC50 [1] [µM] | IC50 [2] | IC50 [3] [µM] | IC50 [4]
O=C(O)[C@@H]1C[C@@H](O)[C@@H](O)[C@@H]([C@H](O)CO)O1 | 10 | – | 18 | –
N.[N-]=[N+]=NC[C@@H](O)[C@H]1O[C@H](C(=O)O)C[C@@H](O)[C@H]1O | 80 | – | – | Strongly interfering absorption
N.O=C(O)[C@@H]1C[C@@H](O)[C@@H](O)[C@@H]([C@H](O)CS)O1 | 17 | Strongly interfering absorption | – | –

These reach a lower IC50 [1]. Values come first.

IC50 [1] [µM] | IC50 [2] | IC50 [3] [µM] | IC50 [4] | Structure (SMILES)
7.4 | Strongly interfering absorption | – | – | NC[C@@H](O)[C@H]1O[C@H](C(=O)O)C[C@@H](O)[C@H]1O
4.8 | – | 24 | – | O=C(O)[C@@H]1C[C@@H](O)[C@@H](O)[C@@H]([C@H](O)CF)O1
6.8 | – | 22 | – | C[C@@H](O)[C@H]1O[C@H](C(=O)O)C[C@@H](O)[C@H]1O
